Source: US9676715B2, “Bis-indolic derivatives, a process for preparing the same and their uses as a drug” (UNIVERSITE JOSEPH FOURIER, priority 2011, dated 2017)
In brackets after ≈: the same amount, converted by molar mass.

Columns and labels:
[1] = test system: Staphylococcus aureus MRSA 252; assay: MIC, Staphylococcus panel (9.2); type: cell-based; settings: 18 h
Procedure: (§1) The microdilution method recommended by the Clinical and Laboratory Standard Institute [M07-A9, Vol. 32, N° 2] was used. The activity of bis-indolic compounds 3f and 4 was tested against 35 Staphylococcus bacterial strains corresponding to 12 different species,
(§2) Bacterial inocula were prepared in Mueller Hinton broth (MH2, BioMérieux, Marcy L'Etoile, France). They were dispensed in 96 well microtiter plates (5×10^5 CFU/ml of final inoculum, 192 μL per well). Indolic compounds diluted in pure DMSO (8 μL per well, concentrated 25 times) were added to the wells as to obtain two-fold serial concentrations (0.5-32 mg/L of final concentrations). The final concentration of DMSO was 4% in each well.
(§3) To avoid cross-contaminations in microtiter plates, one row was left blank between each strain tested. Microplates were incubated for 18 h at 37° C. in ambient air. Then MICs were read visually and, in case of visual reading difficulties, confirmed using a spectrophotometer at a wavelength of 630 nm (BioTek® EL808 Absorbance Microplate Reader). MICs corresponded to the minimum bis-indolic compound concentration that allowed complete visual growth inhibition of bacteria. Drug-free cultures served as growth controls.
(§4) Four Staphylococcus aureus strains were used. Two reference strains were provided by the French reference center for Staphylococcus spp. (Lyon, France), including one methicillin-susceptible (MSSA 476) and one methicillin-resistant (MRSA 252) S. aureus strains. The two remaining S. aureus strains were purchased from the CRBIP (Centre de Ressources Biologiques de l'Institut Pasteur): a vancomycin-intermediate strain (ATCC 106414) and a S. aureus strain (SA-1199B) resistant to fluoroquinolones due to overexpression of the NorA multidrug efflux pump.

[2] = test system: Staphylococcus aureus SA-1199B (NorA); assay: MIC, Staphylococcus panel (9.2); type: cell-based; settings: 18 h
Procedure: as §1, §2, §3, §4

[3] = test system: Staphylococcus aureus MSSA 476; assay: MIC, Staphylococcus panel (9.2); type: cell-based; settings: S. aureus MSSA 476, 4% DMSO, 18 h
Procedure: as §1, §2, §3, §4

[4] = test system: Staphylococcus capitis (CHUG-Scap1); assay: MIC, Staphylococcus panel (9.2); type: cell-based; settings: S. capitis CHUG-Scap1, 4% DMSO, 18 h
Procedure: as §1, §2, §3
(§5) Coagulase-negative Staphylococcus strains included three reference strains purchased from CRBIP: a methicillin-susceptible S. epidermidis strain (ATCC 12228), a methicillin-resistant S. epidermidis strain (ATCC 49461), and a methicillin-susceptible S. sciuri strain (ATCC 29061). We also used clinical strains belonging to the following coagulase-negative Staphylococcus species: S. auricularis (two strains), S. warneri (five strains), S. capitis (five strains), S. haemolyticus (four strains), S. hominis (seven strains), S. cohnii (two strains), and S. saprophyticus, S. caprae and S. simulans (one strain each). Identification of the clinical strains was obtained using VITEK® 2 System (Biomérieux). The specified strain numbers correspond to an internal number of the bacterial strain collection of our laboratory.

[5] = test system: Staphylococcus epidermidis ATCC 12228; assay: MIC, Staphylococcus panel (9.2); type: cell-based; settings: ATCC12228, S. epidermidis ATCC 12228, 4% DMSO, 18 h
Procedure: as §1, §2, §3, §5

[6] = test system: Staphylococcus auricularis (CHUG-Saur1); assay: MIC, Staphylococcus panel (9.2); type: cell-based; settings: S. auricularis CHUG-Saur1, 4% DMSO, 18 h
Procedure: as §1, §2, §3, §5

[7] = test system: Staphylococcus haemolyticus (CHUG-Shae1); assay: MIC, Staphylococcus panel (9.2); type: cell-based; settings: S. haemolyticus CHUG-Shae1, 4% DMSO, 18 h
Procedure: as §1, §2, §3, §5

[8] = test system: Staphylococcus sciuri ATCC 29061; assay: MIC, Staphylococcus panel (9.2); type: cell-based; settings: Mammaliicoccus sciuri, ATCC29061; S. sciuri ATCC 29061; 4% DMSO, 18 h
Procedure: as §1, §2, §3, §5

[9] = test system: Staphylococcus epidermidis ATCC 49461; assay: MIC, Staphylococcus panel (9.2); type: cell-based; settings: ATCC49461, S. epidermidis ATCC 49461, 4% DMSO, 18 h
Procedure: as §1, §2, §3, §5

[10] = test system: Staphylococcus warneri (CHUG-Swar1); assay: MIC, Staphylococcus panel (9.2); type: cell-based; settings: S. warneri CHUG-Swar1, 4% DMSO, 18 h
Procedure: as §1, §2, §3, §5

[11] = test system: Staphylococcus hominis (CHUG-Shom1); assay: MIC, Staphylococcus panel (9.2); type: cell-based; settings: S. hominis CHUG-Shom1, 4% DMSO, 18 h
Procedure: as §1, §2, §3, §5

[12] = test system: Staphylococcus aureus K2378 (overexpresses the efflux pump NorA from a multicopy plasmid); assay: Efflux pump inhibition assay with sub-inhibitory ciprofloxacin; type: cell-based; settings: S. aureus K2378; in the presence of ciprofloxacin 0.5 mg/L

Structure (SMILES)	MIC [1] [µg/mL]	MIC [2] [µg/mL]	MIC [3] [µg/mL]	MIC [4] [µg/mL]	MIC [5] [µg/mL]	MIC [6] [µg/mL]	MIC [7] [µg/mL]	MIC [8] [µg/mL]	MIC [9] [µg/mL]	MIC [10] [µg/mL]	MIC [11] [µg/mL]	melting point [°C]	MIC, mg/L (Ciprofloxacin concentration, mg/L) [12]
CC(C)(C)OC(=O)NCC(NC(=O)c1c[nH]c2ccc(Br)cc12)c1c[nH]c2ccc(Br)cc12 (stereo not drawn) [Compound 3f, tert-Butyl(2-(5-bromo-1H-indol-3-yl)-2-(5-bromo-1H-indolyl-3-carboxamido)ethyl)carbamate]	2 (≈ 3.47 µM)	2 (≈ 3.47 µM)	2 (≈ 3.47 µM)	4 (≈ 6.94 µM)	2 (≈ 3.47 µM)	2 (≈ 3.47 µM)	4 (≈ 6.94 µM)	4 (≈ 6.94 µM)	2 (≈ 3.47 µM)	2 (≈ 3.47 µM)	4 (≈ 6.94 µM)		
CC(NC(=O)c1c[nH]c2ccc(Br)cc12)c1c[nH]c2ccc(Br)cc12 (stereo not drawn) [Compound 4, 5-Bromo-N-(1-(5-bromo-1H-indol-3-yl)ethyl)-1H-indole-3-carboxamide]	2 (≈ 4.34 µM)	2 (≈ 4.34 µM)	1 (≈ 2.17 µM)	2 (≈ 4.34 µM)	1 (≈ 2.17 µM)	1 (≈ 2.17 µM)	2 (≈ 4.34 µM)	2 (≈ 4.34 µM)	1 (≈ 2.17 µM)	1 (≈ 2.17 µM)	1 (≈ 2.17 µM)	144	
Cn1cc(C(=O)NC(CNC(=O)OC(C)(C)C)c2c[nH]c3ccc(Br)cc23)c2cc(Br)ccc21 (stereo not drawn) [Compound 7, tert-Butyl (2-(5-bromo-1-methyl-1H-indole-3-carboxamido)-2-(5-bromo-1H-indol-3-yl)ethyl) carbamate]													0.125 (0.5) mg/L
